# Assay results as given in patent publication US8871728B2, “Non-peptide macrocyclic histone deacetylese (HDAC) inhibitors and methods of making and using thereof” (Georgia Tech Research Corporation, priority 2007, dated 2014).
# Like-named read-outs stand apart in the source and are kept apart here.
# Assays:
# [1] = tested on: HMEC; test: Cell viability, trypan blue exclusion; assay type: cell-based; conditions: Homo sapiens; untransformed cells
# Source text: (§1) Most importantly, the compounds we less toxic to untransformed cell-lines (lung fibroblast and HMEC).
# (§2) Most importantly, these compounds are less toxic to untransformed cell-lines (lung fibroblast and HMEC) that we have studied to date.
# [2] = tested on: NCI-H69; test: Cell viability, trypan blue exclusion; assay type: cell-based; conditions: Homo sapiens
# Source text: as §1, §2
# [3] = tested on: DU 145 cells; test: Cell viability, trypan blue exclusion; assay type: cell-based; conditions: Homo sapiens
# Source text: as §1, §2
# [4] = tested on: SKMES 1; test: Cell viability, trypan blue exclusion; assay type: cell-based; conditions: Homo sapiens, SK-MES-1
# Source text: as §1, §2
# [5] = tested on: lung fibroblasts; test: Cell viability, trypan blue exclusion; assay type: cell-based; conditions: Fibroblast; untransformed cells
# Source text: as §1, §2
# [6] = biological target: T1, HDAC8 (Homo sapiens (Human), UniProt Q9BY41); test: Fluor de Lys HDAC8 inhibition; assay type: biochemical; conditions: average of three independent experiments; Table 4; read-out: HDAC 8
# T1 sequence (Q9BY41 whole entry): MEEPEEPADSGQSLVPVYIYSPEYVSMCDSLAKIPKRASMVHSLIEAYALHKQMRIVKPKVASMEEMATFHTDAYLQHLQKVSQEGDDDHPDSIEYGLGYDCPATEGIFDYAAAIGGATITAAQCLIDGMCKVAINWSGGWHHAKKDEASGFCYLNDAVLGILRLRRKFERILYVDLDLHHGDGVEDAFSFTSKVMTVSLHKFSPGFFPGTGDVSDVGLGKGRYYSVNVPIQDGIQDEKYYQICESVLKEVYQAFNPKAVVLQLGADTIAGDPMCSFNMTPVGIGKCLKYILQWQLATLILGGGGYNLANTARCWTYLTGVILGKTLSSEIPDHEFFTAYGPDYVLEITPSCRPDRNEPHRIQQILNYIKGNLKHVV
# [7] = tested on: HeLa nuclear extract HDAC1/2; test: Fluor de Lys HDAC inhibition, HeLa nuclear extract; assay type: biochemical, human; conditions: HeLa nuclear extract; average of three independent experiments; Table 4; read-out: HDAC ½
# Source text: Fluor de Lys™ is a fluorescence based HDAC activity assay comprising a combination of fluorogenic Histone deAcetylase Lysyl substrate and a developer. The kit is a highly sensitive and convenient alternative to radiolabeled, acetylated histones or peptide/HPLC methods for the assay of histone deacetylases. This assay is based on the ability of HeLa nuclear extract, which is enriched in HDAC activity, to mediate the deacetylation of the acetylated lysine side chain of the Fluor de Lys substrate. The assay procedure requires two steps. First, incubation of the HeLa nuclear extract with the Fluor de Lys substrate results in substrate deacetylation and thus sensitizes it to the second step. In the second step, treatment of the deacetylated substrate with the Fluor de Lys developer produces a fluorophore. The substrate-developer reaction, under normal circumstances goes to completion in less than 1 min at 25° C. The kit used was the Fluorimetric Assay/Drug Discovery Kit—AK-500 Manual Fluorescent Assay System available from BIOMOL® International, Plymouth Meeting, Pa.
# Each IC50 value was obtained by averaging three independent experiments.
# [8] = tested on: Plasmodium falciparum (D6 clone), chloroquine-sensitive; test: Plasmodium growth inhibition, parasite lactate dehydrogenase assay (Malstat); assay type: cell-based; conditions: selective toxicity index, Vero versus D6
# Protocol: (§3) The compounds described herein were also evaluated for parasitic activity against Plasmodium falciparum and Leismania donovani. P. falciparum and L. donovani are the causative parasites of malaria and leishmaniasis, two human diseases which constitute a serious threat to public health in tropical and sub-tropical countries. Antimalarial activity was evaluated in vitro using chloroquine-sensitive (D6, Sierra Leone) and chloroquine-resistant (W2, Indochina) strains of P. falciparum. Antileishmanial activity was evaluated in vitro against the promastigote stage of L. donovani.
# (§4) Plasmodium growth inhibition was determined by a parasite lactate dehydrogenase assay using Malstat reagent. Inhibition of viability of the promastigote stage of L. donovani was determined using standard Alamar blue assay, modified to a fluorometric assay.
# as §3, with “Macrocyclic histone deacetylase inhibitors” for “The compounds described herein”, “were” for “were also”
# as §4
# [9] = tested on: promastigote stage of L. donovani; test: Antileishmanial Alamar blue fluorometric assay; assay type: cell-based; conditions: Leishmania donovani, read-out: Antileshmanial activity IC90 (μg/ml)
# Protocol: as §3, §4
# as §3, with “Macrocyclic histone deacetylase inhibitors” for “The compounds described herein”, “were” for “were also”
# as §4
# [10] = biological target: HDAC6 (Homo sapiens (Human), UniProt Q9UBN7); test: SAMDI mass spectrometry HDAC inhibition assay; assay type: biochemical; conditions: for inhibition at 10 µM: read-out: HDAC6 % inhibition
# Chain of HDAC6 (Q9UBN7 whole entry): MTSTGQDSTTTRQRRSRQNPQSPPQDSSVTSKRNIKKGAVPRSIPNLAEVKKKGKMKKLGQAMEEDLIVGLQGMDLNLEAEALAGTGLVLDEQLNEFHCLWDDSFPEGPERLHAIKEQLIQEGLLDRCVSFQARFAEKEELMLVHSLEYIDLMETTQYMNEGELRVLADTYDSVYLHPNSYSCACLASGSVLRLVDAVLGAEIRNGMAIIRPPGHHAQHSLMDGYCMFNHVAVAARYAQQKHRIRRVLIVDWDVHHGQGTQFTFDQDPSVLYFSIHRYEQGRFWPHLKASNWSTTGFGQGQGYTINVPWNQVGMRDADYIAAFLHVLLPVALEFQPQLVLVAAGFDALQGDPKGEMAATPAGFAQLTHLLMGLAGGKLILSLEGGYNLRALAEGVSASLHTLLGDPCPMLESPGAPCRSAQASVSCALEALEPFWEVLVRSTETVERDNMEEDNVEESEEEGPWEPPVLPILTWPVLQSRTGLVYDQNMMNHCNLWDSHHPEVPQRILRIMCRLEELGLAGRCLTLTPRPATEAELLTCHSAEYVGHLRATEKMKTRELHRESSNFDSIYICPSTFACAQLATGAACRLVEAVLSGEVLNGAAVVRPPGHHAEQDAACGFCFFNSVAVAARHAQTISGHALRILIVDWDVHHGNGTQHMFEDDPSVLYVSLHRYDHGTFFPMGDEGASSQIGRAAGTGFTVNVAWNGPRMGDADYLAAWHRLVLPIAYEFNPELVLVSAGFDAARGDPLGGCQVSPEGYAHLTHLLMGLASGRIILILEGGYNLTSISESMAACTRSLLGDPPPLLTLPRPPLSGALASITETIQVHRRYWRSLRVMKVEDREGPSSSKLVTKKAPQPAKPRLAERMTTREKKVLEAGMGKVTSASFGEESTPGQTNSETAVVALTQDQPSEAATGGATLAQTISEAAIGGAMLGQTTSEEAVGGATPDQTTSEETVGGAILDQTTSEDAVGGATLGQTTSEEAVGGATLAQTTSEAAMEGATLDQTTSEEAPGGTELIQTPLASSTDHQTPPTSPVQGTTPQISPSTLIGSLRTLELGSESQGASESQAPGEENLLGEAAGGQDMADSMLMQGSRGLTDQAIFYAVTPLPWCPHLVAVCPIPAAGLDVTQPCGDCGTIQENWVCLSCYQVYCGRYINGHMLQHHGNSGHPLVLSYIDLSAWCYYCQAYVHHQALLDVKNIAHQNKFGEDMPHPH
# Protocol: (§5) There is precedence that fluorescently labeled substrates can perturb enzyme activity and the effect of inhibitors. […] Additionally, 3-hydroxypyridine-2-ones are highly colored solids and might lead to false positive signals. Mindful of these facts, a label-free SAMDI (self-assembled monolayers for MALDI) mass spectrometry assay was also used to assess HDAC inhibition.
# The SAMDI technique, wherein self-assembled monolayers (SAM) of alkanethiolates on gold are analyzed by matrix assisted laser desorption/ionization (MALDI) mass spectrometry, has been widely used to characterize many biochemical activities, including the deacetylase enzyme family. The SAMDI assay was used to measure the inhibition constant (K1) of fragments against HDAC1, HDAC6 and HDAC8 using a previously identified preferred HDAC substrate.
# [11] = biological target: HDAC1 (Homo sapiens (Human), UniProt Q13547); test: SAMDI mass spectrometry HDAC inhibition assay; assay type: biochemical; conditions: for HDAC1 inhibition, symbol: SAMDI
# Chain of HDAC1 (Q13547 whole entry): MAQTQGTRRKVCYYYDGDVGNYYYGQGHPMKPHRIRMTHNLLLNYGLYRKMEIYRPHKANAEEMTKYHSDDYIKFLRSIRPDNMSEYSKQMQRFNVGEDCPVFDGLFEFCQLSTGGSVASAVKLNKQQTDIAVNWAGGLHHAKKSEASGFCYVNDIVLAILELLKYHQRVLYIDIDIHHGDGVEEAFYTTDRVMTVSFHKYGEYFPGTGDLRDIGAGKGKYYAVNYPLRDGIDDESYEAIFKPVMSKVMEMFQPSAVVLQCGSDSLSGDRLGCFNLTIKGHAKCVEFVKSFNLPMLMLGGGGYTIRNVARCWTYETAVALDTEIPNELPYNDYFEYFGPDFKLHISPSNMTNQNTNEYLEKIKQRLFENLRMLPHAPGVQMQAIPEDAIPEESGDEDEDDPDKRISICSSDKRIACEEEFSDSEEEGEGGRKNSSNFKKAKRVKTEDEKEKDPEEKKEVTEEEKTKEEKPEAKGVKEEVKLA
# Protocol: as §5
# (§6) The SAMDI technique, wherein self-assembled monolayers (SAM) of alkanethiolates on gold are analyzed by matrix assisted laser desorption/ionization (MALDI) mass spectrometry, has been widely used to characterize many biochemical activities, including the deacetylase enzyme family.
# [12] = tested on: DU 145 (androgen independent prostate cancer); test: Anti-cancer activity screen; assay type: cell-based
# [13] = tested on: LNCaP (androgen dependent prostate cancer); test: Anti-cancer activity screen; assay type: cell-based
# [14] = tested on: Jurkat (T cell leukemia overexpressing HDAC8); test: Anti-cancer activity screen; assay type: cell-based; conditions: read-out: Jurkat (μm)
# [15] = biological target: T1, HDAC8; test: SAMDI mass spectrometry HDAC inhibition assay; assay type: biochemical
# Protocol: as §5, §6
# [16] = Homo sapiens, DU-145, calculated IC50 above 20 μM (highest concentration tested) also reported as >20
# [17] = Table 14, read-out: HDAC 6 (nm)
# [18] = calculated IC50 above 20 μM (highest concentration tested) also reported as >20
# [19] = Table 14, read-out: HDAC 8 (nm)
smiles,measurement,setting,value
"CC[C@H]1OC(=O)[C@H](C)[C@@H](O[C@H]2C[C@@](C)(OC)[C@@H](O)[C@H](C)O2)[C@H](C)[C@@H](O[C@@H]2O[C@H](C)C[C@H](N(C)Cc3ccc(-c4cn(CCCCCCC(=O)NO)nn4)cc3)[C@H]2O)[C@](C)(OC)C[C@@H](C)C(=O)[C@H](C)[C@@H](O)[C@]1(C)O [Compound 25, Clarithromycin-N-phenyltriazolylheptahydroxamic acid]",EC50,[1],> 10000 nM
same,EC50,[2],1450 nM
same,EC50,[3],1120 nM
same,EC50,[4],1330 nM
same,EC50,[5],> 10000 nM
same,IC50,[6],1890 nM
same,IC50,[7],4.09 nM
"O=C(CCCCCCC(=O)Nc1ccccc1)NO [SAHA, suberoylanilide hydroxamic acid, reference compound]",S.I. D6,[8],4.8
same,IC90,[9],50 µg/mL
same,inhibition at 10 µM,[10],95%
"Cc1ccccc1-c1ccc(Cn2cccc(O)c2=S)cc1 [Compound 149f, 1-(2-Methyl-(1,1′-biphenylmethyl))-3-hydroxyoxypyridine-2-thione]","HDAC1 inhibition, symbol",[11],NI (No significant Inhibition (below 20% Inhibition))
same,IC50,[12]; [16],13600 ± 2910 nM
same,IC50,[10]; [17],306 ± 69 nM
same,IC50,"[13]; Homo sapiens, LNCaP",7750 ± 730 nM
"Oc1cccn(Cc2cn(-c3ccccc3)nn2)c1=S [Compound 154a, 1-Phenyltriazolylmethyl-3-hydroxypyridine-2-thione]",IC50,"[14]; Homo sapiens, Jurkat",4680 ± 340 nM
same,IC50,[12]; [16],24000 ± 7470 nM
same,IC50,[12]; [18],> 20000 nM
same,inhibition at 10 µM,[10],41%
same,IC50,"[13]; Homo sapiens, LNCaP",13100 ± 1510 nM
"Oc1cccn(CCCCCCCn2cc(-c3ccccc3)nn2)c1=S [Compound 162f, 1-Phenyltriazolylheptyl-3-hydroxypyridine-2-thione]","HDAC1 inhibition, symbol",[11],NI (No significant Inhibition (below 20% Inhibition))
same,HDAC1 % inhibition,"[11]; at 10 μM, given if the IC50 was above 10 μM",35%
same,IC50,"[15]; SAMDI, read-out: HDAC8 IC50",232 ± 19 nM
same,IC50,[15]; [19],1380 ± 205 nM
same,IC50,[14],9040 ± 1310 nM
same,IC50,[12],17700 ± 3280 nM
same,IC50,"[10]; SAMDI, read-out: HDAC6 IC50",955 ± 150 nM
same,IC50,[10]; [17],955 ± 150 nM
same,IC50,[13],11000 ± 1920 nM
"N#Cc1ccccc1-c1ccc(Cn2cccc(O)c2=S)cc1 [Compound 149c, 1-(2-Cyano-(1,1′-biphenylmethyl))-3-hydroxyoxypyridine-2-thione]","HDAC1 inhibition, symbol",[11],NI (No significant Inhibition (below 20% Inhibition))
same,IC50,"[15]; SAMDI, read-out: HDAC8 IC50",1910 ± 771 nM
same,IC50,"[15]; SAMDI, read-out: HDAC8 activity (IC50)",~2000 nM
same,IC50,[15]; [19],1910 ± 771 nM
same,IC50,"[14]; Homo sapiens, Jurkat",8950 ± 690 nM
same,IC50,[12]; [16],30000 ± 5850 nM
same,IC50,[12]; [18],> 20000 nM
same,IC50,"[10]; SAMDI, read-out: HDAC6 IC50",372 ± 35 nM
same,IC50,"[13]; Homo sapiens, LNCaP",14600 ± 840 nM
"CC[C@H]1OC(=O)[C@H](C)[C@@H](O[C@H]2C[C@@](C)(OC)[C@@H](O)[C@H](C)O2)[C@H](C)[C@@H](O[C@@H]2O[C@H](C)C[C@H](N(C)Cc3ccc(-c4cn(CCCCCC(=O)NO)nn4)cc3)[C@H]2O)[C@](C)(OC)C[C@@H](C)C(=O)[C@H](C)[C@@H](O)[C@]1(C)O [Compound 23, Clarithromycin-N-phenyltriazolylhexahydroxamic acid]",EC50,[1],> 10000 nM
same,EC50,[2],2670 nM
same,EC50,[3],2980 nM
same,EC50,[4],2150 nM
same,EC50,[5],> 10000 nM
same,IC50,[6],3990 nM
same,IC50,[7],37 nM
